Experimental data reported in the Bradley open melting point set (2014).

SMILES | melting point
CC(=O)C1=CC[C@H]2[C@@H]3CC(=O)C4=C[C@@H](O)CC[C@]4(C)[C@H]3CC[C@]12C [3β-Hydroxypregna-4,16-diene-6,20-dione] | 169 °C
CC(=O)Nc1ccc(Cl)cc1 [4'-chloroacetanilide] | 179 °C
O=C(/C=C/c1ccccc1)c1ccc(Cl)cc1 [4'-chlorochalcone] | 99 °C
CCOc1ccc(NC(C)=O)cc1 [4'-ethoxyacetanilide] | 135 °C
Cc1ccc2oc(-c3ccc(O)cc3)cc(=O)c2c1 [4'-hydroxy-6-methylflavone] | 241 °C
CC(=O)Nc1ccc(C(C)C)cc1 [4'-isopropylacetanilide] | 104 °C
CC(=O)c1ccc(C)c([N+](=O)[O-])c1 [4'-methyl-3'-nitroacetophenone] | 60 °C
O=C(O)c1ccc(C(=O)OC(=O)c2ccc(C(=O)O)cc2C(=O)O)c(C(=O)O)c1 [4,4'-(Oxydicarbonyl)diisophthalic acid] | 165 °C
Oc1ccc(-c2ccc(O)cc2)cc1 [4,4'-dihydroxybiphenyl] | 282 °C
CN(C)C(=S)NN [4,4-dimethyl-3-thiosemicarbazide] | 145 °C
Oc1ccc(-n2ccnc2)cc1 [4-(1-imidazolyl)phenol] | 206 °C
CN(C)NC(=O)CCC(=O)O [4-(2,2-Dimethylhydrazino)-4-oxobutanoic acid] | 154 °C
O=C1OC(c2ccccc2)=NC1=Cc1ccccc1F [4-(2-Fluoro-benzylidene)-2-phenyl-4H-oxazol-5-one] | 149 °C
CC(C)(c1ccccc1)c1ccc(O)cc1 [4-(2-Phenylpropan-2-yl)phenol] | 71.5 °C
COc1cc(CCC(C)=O)ccc1O [4-(4-hydroxy-3-methoxyphenyl)-2-butanone] | 41 °C
COc1ccc(CCCC(=O)O)cc1 [4-(4-methoxyphenyl)butanoic acid] | 59 °C
O=[N+]([O-])c1ccc(N2CCOCC2)cc1 [4-(4-nitrophenyl)morpholine] | 150 °C
Cc1ccc(C=C2N=C(c3ccccc3)OC2=O)o1 [4-(5-Methyl-furan-2-ylmethylene)-2-phenyl-4H-oxazol-5-one] | 160 °C
Nc1ccc(N=Nc2ccccc2)cc1 [4-(Phenyldiazenyl)aniline] | 124 °C
CSc1ccc(B(O)O)cc1 [4-(methylthio)benzeneboronic acid] | 210 °C
NNC(=O)c1ccc(C(F)(F)F)cc1 [4-(trifluoromethyl)benzhydrazide] | 119 °C
O=C(c1ccccc1)c1ccc(C(F)(F)F)cc1 [4-(trifluoromethyl)benzophenone] | 118 °C

SMILES | melting point
O=C(O)c1cnccc1C(F)(F)F [4-(trifluoromethyl)nicotinic acid] | 148 °C
Nc1ccc(C(=O)O)cc1 [4-Aminobenzoic acid] [listing 1 of 2 here] | 189 °C
Nc1ccc(Cl)cc1 [4-Chloroaniline] | 72.5 °C
Nc1ccc(Cl)cc1N [4-Chlorobenzene-1,2-diamine] | 68.5 °C
O=C(Cl)c1ccc(Cl)cc1 [4-Chlorobenzoyl chloride] | 13 °C
O=[N+]([O-])c1ccc(Cl)cc1 [4-Chloronitrobenzene] | 83.5 °C
N#Cc1ccc(O)c([N+](=O)[O-])c1 [4-Hydroxy-3-nitrobenzonitrile] | 141 °C
COc1ccc(C(=O)Cl)cc1 [4-Methoxybenzoyl chloride] | 22 °C
CC(=O)CC(C)C [4-Methylpentan-2-one] | -80 °C
O=[N+]([O-])c1cc[n+]([O-])c2ccccc12 [4-Nitroquinoline 1-oxide] | 154 °C
C=CC1CC=CCC1 (centres undefined) [4-Vinylcyclohexene] | -101 °C
CCCCc1ccc(/N=N/c2ccc(OC(=O)CC)cc2)cc1 [4-[(E)-(4-butylphenyl)diazenyl]phenyl propanoate] | 86 °C
CC(=O)Nc1ccc(C(=O)O)cc1 [4-acetamidobenzoic_acid] | 259 °C
CC(=O)Nc1ccc(O)cc1 [4-acetamidophenol] | 170 °C
CC(=O)c1ccc(C#N)cc1 [4-acetylbenzonitrile] | 58 °C
Nc1cn[nH]c1 [4-amino-1h-pyrazole] | 75 °C
Cc1cc(N)nc(C)n1 [4-amino-2,6-dimethylpyrimidine] | 185 °C
Nc1ccc(C(=O)O)cc1 [4-aminobenzoic acid] | 188 °C
N#Cc1ccc(N)cc1 [4-aminobenzonitrile] | 85 °C
Cc1[nH]n(-c2ccccc2)c(=O)c1C(=O)c1ccccc1 [4-benzoyl-3-methyl-1-phenyl-5-pyrazolinone] | 91 °C
O=C1CN(C(=O)OCc2ccccc2)CCN1 [4-benzyloxycarbonyl-2-piperazinone] | 120 °C
OB(O)c1ccc(Br)c(F)c1F [4-bromo-2,3-difluorobenzeneboronic acid] | 225 °C

Now from value to compound:

melting point | SMILES
272 °C | O=C1OC2(c3ccccc31)c1ccc(O)c(Br)c1Oc1c2ccc(O)c1Br [4',5'-dibromofluorescein]
100 °C | CCC(=O)c1ccc(OCc2ccccc2)cc1 [4'-benzyloxypropiophenone]
176 °C | CC(=O)c1ccc(O)c(C(F)(F)F)c1 [4'-hydroxy-3'-(trifluoromethyl)acetophenone]
294 °C | O=C(O)c1ccc(-c2ccc(O)cc2)cc1 [4'-hydroxybiphenyl-4-carboxylic acid]
176 °C | O=C(/C=C/c1ccccc1)c1ccc(O)cc1 [4'-hydroxychalcone]
50 °C | CC(=O)c1ccc(Oc2ccccc2)cc1 [4'-phenoxyacetophenone]
56 °C | CC(=O)CCc1ccc(CCC(C)=O)cc1 [4,4'-benzene-1,4-diyldibutan-2-one]
201 °C | Nc1ccc(NC(=O)c2ccc(N)cc2)cc1 [4,4'-diaminobenzanilide]
102 °C | COc1ccc(Nc2ccc(OC)cc2)cc1 [4,4'-dimethoxydiphenylamine]
-135 °C | C/C=C\C(C)(C)C [4,4-dimethyl-cis-2-pentene]
181 °C | Clc1nc[nH]c1Cl [4,5-dichloroimidazole]
207 °C | COc1cc(CC(=O)O)c([N+](=O)[O-])cc1OC [4,5-dimethoxy-2-nitrophenylacetic acid]
248 °C | O=C1Nc2c(Cl)ccc(Cl)c2C1=O [4,7-dichloroisatin]
151 °C | Cc1ccc(NC(=S)NN)c(C)c1 [4-(2,4-dimethylphenyl)-3-thiosemicarbazide]
193 °C | O=C(O)/C=C/c1ccc(B(O)O)cc1 [4-(2-carboxyvinyl)benzeneboronic acid]
76 °C | Nc1ccc(-c2cccs2)cc1 [4-(2-thienyl)aniline]
130 °C | CCc1ccc(NC(=S)NN)cc1 [4-(4-ethylphenyl)-3-thiosemicarbazide]
45 °C | O=C(O)CCCc1ccc(F)cc1 [4-(4-fluorophenyl)butyric acid]
131 °C | Nc1ccc(N2CCOCC2)cc1 [4-(4-morpholinyl)aniline]
75 °C | CN(C)c1ccc(C=O)cc1 [4-(Dimethylamino)benzaldehyd]
163 °C | O=C(NC1CCC(O)CC1)OCc1ccccc1 (centres undefined) [4-(benzyloxycarbonylamino)cyclohexanol]
198 °C | N#CCc1ccc(B(O)O)cc1 [4-(cyanomethyl)benzeneboronic acid]
112 °C | CN(C)c1ccncc1 [4-(dimethylamino)pyridine]
112 °C | O=C(O)COc1ccc(CO)cc1 [4-(hydroxymethyl)phenoxyacetic acid]
123 °C | OB(O)c1ccc(OC(F)(F)F)cc1 [4-(trifluoromethoxy)benzeneboronic acid]

melting point | SMILES
221 °C | O=C(O)c1ccc(C(F)(F)F)cc1 [4-(trifluoromethyl)benzoic acid]
168 °C | Nc1cc(Cl)c(O)c(Cl)c1 [4-Amino-2,6-dichlorophenol]
188 °C | Nc1ccc(C(=O)O)cc1 [4-Aminobenzoic Acid]
188 °C | Nc1ccc(C(=O)O)cc1 [4-Aminobenzoic acid] [listing 2 of 2 here]
189 °C | Nc1ccc(O)cc1 [4-Aminophenol]
64 °C | Cc1cc(O)ccc1Br [4-Brom-3-methylphenol]
83.8 °C | CSc1nc(Cl)cc(N2CCCCC2)n1 [4-Chloro-2-(methylsulfanyl)-6-(piperidin-1-yl)pyrimidine]
43.5 °C | CCc1ccc(O)cc1 [4-Ethylphenol]
13.5 °C | COc1ccc(N)c(C)c1 [4-Methoxy-2-methylaniline]
56 °C | COc1ccc(O)cc1 [4-Methoxyphenol]
148 °C | Nc1ccc(/N=C/c2cccc([N+](=O)[O-])c2)cc1 [4-[(E)-(3-Nitrobenzylidene)amino]aniline]
260 °C | CC(=O)Nc1ccc(C(=O)O)cc1 [4-acetamidobenzoic acid]
170 °C | CC(=O)Nc1ccc(O)cc1 [4-acetylaminophenol]
93 °C | N#Cc1cc(F)c(N)cc1F [4-amino-2,5-difluorobenzonitrile]
183 °C | NC(=O)c1ccc(N)cc1 [4-aminobenzamide]
199 °C | O=C(O)c1ccc(C(=O)c2ccccc2)cc1 [4-benzoylbenzoic acid]
196 °C | OB(O)c1ccc(OCc2ccccc2)cc1 [4-benzyloxybenzeneboronic acid]
120 °C | Oc1ccc(OCc2ccccc2)cc1 [4-benzyloxyphenol]
174 °C | [O-][n+]1ccc(OCc2ccccc2)cc1 [4-benzyloxypyridine n-oxide]
34 °C | Clc1cc(Br)ccc1I [4-bromo-2-chloro-1-iodobenzene]
52 °C | Cc1cc(Br)ccc1N [4-bromo-2-methylaniline] [listing 1 of 2 here]
58 °C | Cc1cc(Br)ccc1N [4-bromo-2-methylaniline] [listing 2 of 2 here]
64 °C | Nc1ccc(Br)c(Cl)c1 [4-bromo-3-chloroaniline]
142 °C | CC(C)(C)c1ccc(-c2ccc(Br)cc2)cc1 [4-bromo-4'-tert-butylbiphenyl]
57 °C | O=Cc1ccc(Br)cc1 [4-bromobenzaldehyde]
